Test results taken from patent US20110009597A1, “RECOMBINANT GANODERMA LUCIDIUM IMMUNOMODULATORY PROTEIN (rLZ-8) AND USES THEREOF” (priority 2008, published 2011).

B1: FITC-rLZ-8: rLZ-8 labelled with Fluorescein-5-Isothiocyanate (FITC) (conjugate, UniProt P14945 2-111, looked up)
Immunomodulatory protein Ling …: SDTALIFRLAWDVKKLSFDYTPNWGRGNPNNFIDTVTFPKVLTDKAYTYRVAVSGRNLGVKPSYAVESDGSQKVNFLEYNSGYGIADTNTIQVFVVDPDTNNDFIIAQWN
modifications: FITC label

How the values were obtained:
[1] = test system: Mouse hepatoma cell strain H22; test: H22 subcutaneous tumor inhibition experiment; assay type: in vivo, Mice; details: CTX 20 mg·kg^−1 intraperitoneal
Method: (§1) Mice, weight 18-22g, males and females were divided equally, from Jilin University Laboratory Animal Center. Mouse hepatoma cell strain H22, offered by our laboratory. Cyclophosphamide (CTX), offered by Jiangsu Hengrui Medicine Co., Ltd., lot number: 06101921.
(§2) H22 hepatoma cells experiment group were divided into normal control group, negative control group, positive control group, rLZ-8 low-dose treatment group (0.25 mg·kg^−1), rLZ-8 medium-dose treatment group (0.5 mg·kg^−1), rLZ-8 high-dose treatment group (1 mg·kg^−1). For each group 10 mice.
H22 subcutaneous tumor tumor inhibition experiment methods: Select well-growing 1-122 cells, dilute appropriately with sterile saline into a tumor cell suspension, cell counts for 10^7·L^−1, under the right armpit of each mouse inoculated subcutaneously 0.2 ml (except for the normal control group). Treatment after 24 h of vaccination. Normal control group and negative control group were given saline 0.2 ml·each^−1·d^−1, intraperitoneal injection; positive control group were given cyclophosphamide 20 mg·kg^−1, 0.2 ml·each^−1·d^−1, intraperitoneal injection. rLZ-8 treatment groups were given doses of tail venous injection respectively, 0.2 ml·each^−1·d^−1, in 10 consecutive days. Draw blood from orbital venous plexus 10 days before and after medication respectively, sent to Jilin University No. 1 Hospital clinical laboratory to test and analyze the number of WBC. Kill all the mice the next day of drug withdrawal at cervical dislocation, dissected anatomically and took out the tumors, weigh tumors, calculated the inhibition rate using the following equation:
Inhibition rate (%)=(average tumore weight of the control group−average tumor weight of the experiment group)/average tumor weight of the control group×100%

[2] = test system: S180 cells; test: Mouse transplanted S180 subcutaneous tumor inhibition; assay type: in vivo, Mice; details: CTX 20 mg·kg^−1 intraperitoneal
Method: (§3) Mice, 18-22 g, males and females were equally divided, provided by Jilin University Laboratory Animal Center; Mice Ehrlich ascites cells strain, provided by our laboratory S180; Cyclophosphamide (CTX), offered by Jiangsu Hengrui Medicine Co., Ltd., lot number: 06101921. S180 ascites tumors and solid tumors in experiment group were divided into normal control group, negative control group, positive control group, rLZ-8 low-dose treatment group (0.25 mg·kg^−1), rLZ-8 medium-dose treatment group (0.5 mg·kg^−1), rLZ-8 high-dose treatment group (1 mg·kg^−1). For each group 10 mice.
(§4) Select well-growing S180 cells, dilute appropriately with sterile saline into a tumor cell suspension, cell counts for 10^7·L^−1, under the right armpit of each mouse inoculated subcutaneously 0.2 ml (except for the normal control group). Treatment after 24 h of vaccination. Normal control group and negative control group were given saline 0.2 ml·each^−l·d^−1, intraperitoneal injection; positive control group were given cyclophosphamide 20 mg·kg^−1, intraperitoneal injection. rLZ-8 treatment groups were given doses of tail venous injection respectively, 0.2 ml·each^−1·d^−1, in 10 consecutive days. Draw blood from orbital venous plexus 10 days before and after medication respectively, sent to Jilin University No. 1 Hospital clinical laboratory to test and analyze the number of WBC. Kill all mice the next day of drug withdrawal at cervical dislocation, dissect anatomically and take out the tumors, weigh tumors, calculate the inhibition rate using the following equation:
Inhibition rate (%)=(average tumore weight of the control group−average tumore weight of the experiment group)/average tumor weight of the control group×100%

[3] = test system: WBC; test: WBC numbers in H22 tumor-bearing mice; details: CTX 20 mg·kg^−1
Method: as §1, §2
H22 subcutaneous tumor tumor inhibition experiment methods: Select well-growing 1-122 cells, dilute appropriately with sterile saline into a tumor cell suspension, cell counts for 10^7·L^−1, under the right armpit of each mouse inoculated subcutaneously 0.2 ml (except for the normal control group). Treatment after 24 h of vaccination. […] Kill all the mice the next day of drug withdrawal at cervical dislocation, dissected anatomically and took out the tumors, weigh tumors, calculated the inhibition rate using the following equation: […]

[4] = test system: WBC; test: Number of leukocytes in S180 tumor-bearing mice; details: CTX 20 mg·kg^−1
Method: as §3
as §4, with “Kill all mice the next day of drug withdrawal at cervical dislocation, dissect anatomically and take out the tumors, weigh tumors, calculate the inhibition rate using the following equation:” left out

[5] = test system: rat myocardial tissues; test: FITC-rLZ-8 labeling of rat myocardial tissues; assay type: binding; details: FITC-rLZ-8 100 ng·ml^−1, 1 h, 37° C.
Method: Leica CM1850 frozen slicer; wistar rat; fluorescence microscope 80i (Nikon); isotonic PBS buffer (pH7.2); fetal bovine serum (FBS, Gibco); FITC-rLZ-8 is prepared by our laboratory. Cut the rats at neck and kill them, and strip the hearts, put them to frozen microtome till the temperature dropped to −20° C. for slicing, hatching for 1 h at 37° C. when the myocaridial and PBS preparation of FITC-rLZ-8 solution (100 ng·ml^−1), observing under fluorescence microscope to observe, and establish a blank control group.

[6] = test system: rabbit chondrocytes; test: FITC-rLZ-8 labeling of primary rabbit chondrocytes; assay type: binding; details: FITC-rLZ-8 0.25 μg·ml^−1, 1 h, 37° C.
Method: Japanese white rabbits (male, 2.5 kg) 4; surgical instruments; 025% trypsogen+0.02% EDTA; 0.2% collagenasell; D-Hanks; IMDM medium ([…], vitamin C, double-antibody); 0.025 mg·ml^−1 Poly-lysine solution; sterile water for injection (WFI).
Fix the experiment animals and execute them with air embolism, skinned abdominal in the middle and exposed the limbs, cutting the muscle fascia with scissors, disconnected the backbone from os longum, remove carefully the entire knee, hip and shoulder bones, with a rough pruning, immersed into D-Hanks. Moved the beaker with tissues into the super-clean units, move the tissues after pruning and cleansing into the 2nd sterile D-Hanks cup; assemble the knife, cutting a thin layer of cartilage off, use curved forceps move into the 6 cm culture incubator, washing with D-Hanks three times, discard majority of D-Hanks, cut the cartilage into 1 mm slices with ophthalmic scissors, discard majority of D-Hanks, spoon removing the broken bone vials into a 10 cm^2 culture flask, mix with trypsogen EDTA for digestion, 37° C., 30 min; replace the trypsogen for collagenase, put it into the hatching incubator of 37° C., taking out and shaking 5 min every 1 h, with 4-4.5 h, finish digestion. Prepare it to the cell suspension solution and mix 3 ml IMDM containing FBS 15%, 5×10^4·ml^−1 vaccinated into the culture flask. […]

[7] = test system: HL-60 cells; test: FITC-rLZ-8 labeling of HL-60 cells; assay type: binding
Method: Fluorescence microscope 80i (Nikon), IMDM cell culture medium (Hyclone), fetal bovine serum (FBS, Gibco), FITC-rLZ-8 and isotonic PBS buffer (pH7.2) Prepared by our laboratory.
Vaccinated the HL-60 by 2×106 inoculation on 24-hole plate, each hole 0.5 ml, with IMDM (2% FBS) culture medium prepared FITC-rLZ-8 for 100 ng·ml^−1, each hole 0.5 ml hatching (37° C.), establish a control group, experiment group 1 h and experiment group 6 h, draw the cells respectively from 1 h and 6 h, mixing into 1.5 ml EP tube, 1000 r·min^−1 centrifuge, clear the supernatant, wash with PBS 3 times, re-suspend after washing.

Molecule | Inhibition rate (%) [1] | Tumor weight [1] | Inhibition rate (%) [2] | Tumor weight [2] | WBC numbers, 10th day of medication [3] | Number of leukocytes, 10th day of medication [4] | fluorescence of myocardial tissues [5] | fluorescence of rabbit chondrocytes [6] | cell appearance of HL-60 ([7]; FITC-rLZ-8 100 ng·ml^−1, group 6 h) | fluorescence of HL-60 cells ([7]; FITC-rLZ-8 100 ng·ml^−1, incubation of 1 h and 6 h)
O=P1(N(CCCl)CCCl)NCCCO1 (stereo not shown) [CTX, Cyclophosphamide, reference compound] | 62.5% | 0.45 ± 0.02 g | 65.3% | 0.35 ± 0.02 g | 4.49 ± 0.21 | 4.41 ± 0.25 |  |  |  | 
B1 |  |  |  |  |  |  | without visible fluorescence | without green fluorescence | agglutination of cells | strong green fluorescence
